Source: patent US6033823A, “Mutated penicillin G acylase genes” (priority 1994, dated 2000)

Target: T1, Alcaligenes faecalis Penicillin G acylase, wild type (α subunit SEQ ID NO:27, β subunit SEQ ID NO:32) (Alcaligenes faecalis, UniProt O34142)
T1 construct: alpha 202 aa, beta 551 aa; likely recombinant, E. coli host
T1 sequence (O34142 27-228): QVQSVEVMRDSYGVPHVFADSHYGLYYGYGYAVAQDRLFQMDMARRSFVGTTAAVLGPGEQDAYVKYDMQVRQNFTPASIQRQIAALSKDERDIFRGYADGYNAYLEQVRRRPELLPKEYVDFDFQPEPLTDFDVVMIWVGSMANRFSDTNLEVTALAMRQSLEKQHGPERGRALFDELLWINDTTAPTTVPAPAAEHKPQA
T1 sequence (O34142 266-816): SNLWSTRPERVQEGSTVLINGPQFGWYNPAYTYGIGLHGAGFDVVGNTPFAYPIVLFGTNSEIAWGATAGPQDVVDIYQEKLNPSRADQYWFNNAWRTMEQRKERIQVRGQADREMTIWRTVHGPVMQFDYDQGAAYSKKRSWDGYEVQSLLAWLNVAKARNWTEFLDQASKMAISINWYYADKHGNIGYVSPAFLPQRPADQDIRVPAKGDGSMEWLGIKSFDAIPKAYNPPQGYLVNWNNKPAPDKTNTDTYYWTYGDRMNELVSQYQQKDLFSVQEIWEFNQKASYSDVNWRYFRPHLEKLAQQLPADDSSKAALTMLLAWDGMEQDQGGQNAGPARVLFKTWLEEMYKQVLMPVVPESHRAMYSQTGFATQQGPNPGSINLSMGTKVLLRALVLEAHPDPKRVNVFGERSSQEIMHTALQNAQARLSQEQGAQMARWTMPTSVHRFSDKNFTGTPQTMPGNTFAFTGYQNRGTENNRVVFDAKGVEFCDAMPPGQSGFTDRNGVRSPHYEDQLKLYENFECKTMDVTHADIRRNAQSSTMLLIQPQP
Assay: Deacylation kinetics and phenylacetic acid product inhibition, wild type PenG acylase
Assay type: biochemical
Conditions: Table 8, wt AF; NIPAB, 0.1 M NaH2PO4, pH 7.5, 25° C.
Experimental: In order to determine enzymatic activity the acylases were incubated with substrate at room temperature in buffered solution. In case β-lactamase impurity was expected to be present in the enzyme preparations, 1.0 mM -lactamase inhibitor 6-bromo-penicillanic acid was added to the assay. The reactions were stopped by adding an excess PMSF. For some mutants which were less sensitive to PMSF inhibition, the reactions were stopped by adding 0.5 M HCl or 0.5 M acetic acid until the pH was between 3 and 4. When reactions were subsequently analysed by HPLC, the reactions were stopped by dilution with the correponding elution solvent (see table 1). […]
The composition of the reaction mixtures was determined by high-performanceliquid chromatography (HPLC)(table 1). Concentrations were determined by using standards of known concentration.
In a continuous assay Penicillin G acylase was assayed spectro-fotometrically with the chromogenic substrate NIPAB [6-nitro-3-phenylacetamido-benzoic acid]. The liberation of 3-amino-6-nitrobenzoic acid was monitored by measuring the extinction at 405 nm in a Kontron 610 kinetic spectrofotometer. […]
Initial rate measurements were performed with excess substrate over the enzyme. Catalytic parameters were derived from least-squares fitting of the measured initial rates plotted for various substrate concentrations according to the Michaelis-Menten equation. […]

O=C(Cc1ccccc1)Nc1ccc([N+](=O)[O-])c(C(=O)O)c1 [NIPAB, 6-nitro-3-phenylacetamido-benzoic acid] showed a Vmax of 37.0 U/mg.
